Key:
[1] = biological target: T1, Eis (Mycobacterium tuberculosis, UniProt P9WFK7); experiment: Eis inhibition, UV-Vis DTNB assay of aminoglycoside acetylation; format: biochemical; conditions: at least 3 trials
[2] = biological target: T2, AAC(3)-IV (Salmonella sp, UniProt P08988); experiment: Inhibitors' selectivity: AAC; format: biochemical, Escherichia coli; conditions: inhibitor 200 to 0.2 μM; enzyme 0.25 μM
T2 sequence (P08988 with tags, fused parts or gaps limits assumed): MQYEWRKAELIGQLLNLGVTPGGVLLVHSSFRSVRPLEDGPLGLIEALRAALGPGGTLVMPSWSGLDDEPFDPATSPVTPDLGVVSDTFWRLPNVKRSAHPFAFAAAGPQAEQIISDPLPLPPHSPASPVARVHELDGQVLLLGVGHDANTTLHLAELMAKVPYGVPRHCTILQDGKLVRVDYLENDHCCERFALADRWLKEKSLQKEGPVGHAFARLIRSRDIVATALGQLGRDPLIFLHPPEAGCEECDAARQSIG

[3] = biological target: T1, Eis; experiment: Mode of inhibition of Eis; format: biochemical; conditions: for Mode of inhibition against NEO: varying NEO 50-200 μM
[4] = cited from earlier work
[5] = biological target: AAC(6′)/APH(2″)-Ia (Staphylococcus aureus, UniProt P0A0C1); experiment: Inhibitors' selectivity: AAC; format: biochemical; conditions: inhibitor 200 to 0.2 μM; enzyme 0.25 μM
Sequence of AAC(6′)/APH(2″)-Ia (P0A0C1 whole entry): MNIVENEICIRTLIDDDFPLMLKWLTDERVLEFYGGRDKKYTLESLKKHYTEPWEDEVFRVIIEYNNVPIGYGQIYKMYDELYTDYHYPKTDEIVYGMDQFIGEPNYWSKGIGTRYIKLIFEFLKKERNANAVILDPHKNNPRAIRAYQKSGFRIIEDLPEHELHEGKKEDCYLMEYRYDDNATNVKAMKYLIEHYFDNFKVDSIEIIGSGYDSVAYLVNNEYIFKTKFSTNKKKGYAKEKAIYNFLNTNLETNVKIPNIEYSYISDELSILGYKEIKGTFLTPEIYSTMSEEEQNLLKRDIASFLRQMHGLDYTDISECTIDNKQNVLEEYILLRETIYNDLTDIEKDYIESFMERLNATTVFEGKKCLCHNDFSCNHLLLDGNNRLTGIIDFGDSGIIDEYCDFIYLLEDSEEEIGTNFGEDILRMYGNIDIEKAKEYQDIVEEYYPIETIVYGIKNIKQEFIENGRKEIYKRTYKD

[6] = biological target: AAC(2′)-Ic (Mycobacterium tuberculosis, UniProt P9WQG9); experiment: Inhibitors' selectivity: AAC; format: biochemical, Mtb; conditions: inhibitor 200 to 0.2 μM
Sequence of AAC(2′)-Ic (P9WQG9 whole entry): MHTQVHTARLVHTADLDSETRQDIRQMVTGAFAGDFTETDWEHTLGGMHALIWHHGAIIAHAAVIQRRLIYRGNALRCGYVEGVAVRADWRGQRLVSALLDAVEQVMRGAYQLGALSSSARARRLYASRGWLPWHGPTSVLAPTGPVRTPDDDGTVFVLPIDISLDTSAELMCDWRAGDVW

T1 sequence (P9WFK7 whole entry): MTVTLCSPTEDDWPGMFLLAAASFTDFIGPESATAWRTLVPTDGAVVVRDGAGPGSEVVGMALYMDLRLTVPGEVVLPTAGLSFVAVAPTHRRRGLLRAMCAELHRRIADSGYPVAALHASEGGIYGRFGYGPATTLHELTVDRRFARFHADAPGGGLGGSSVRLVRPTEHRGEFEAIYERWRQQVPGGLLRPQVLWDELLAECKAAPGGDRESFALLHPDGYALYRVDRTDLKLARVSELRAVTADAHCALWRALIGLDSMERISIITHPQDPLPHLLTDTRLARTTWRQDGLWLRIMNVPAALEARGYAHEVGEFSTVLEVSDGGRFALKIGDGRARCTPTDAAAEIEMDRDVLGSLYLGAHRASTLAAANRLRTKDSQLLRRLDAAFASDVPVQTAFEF

[H]/N=C(\N/C(=N/[H])NCCCCCCNC(=N)NC(=N)Nc1ccc(Cl)cc1)Nc1ccc(Cl)cc1 [Compound 6, chlorhexidine]
IC50 ([1]; Eis inhibition constants (IC50) using AMK, substrate AMK): 321 ± 58 nM
IC50 ([1]; Eis inhibition constants (IC50) using KAN, substrate KAN): 666 ± 193 nM
inhibition of AAC(3)-IV [2]: no significant inhibition
Mode of inhibition against AMK ([3]; substrate AMK, listed as chlorhexidine (6)): AG-competitive inhibitor
Mode of inhibition against KAN ([3]; substrate KAN, listed as chlorhexidine (6)): AG-competitive inhibitor
Mode of inhibition against NEO [3]: competitive inhibitor
Mode of inhibition against NEO ([3]; listed as chlorhexidine (6)): AG-competitive inhibitor
toxic effects on pulmonary tissues [4]: toxic effects on pulmonary tissues
inhibition of AAC(6′)/APH(2″) [5]: no significant inhibition
inhibition of AAC(2′)-Ic [6]: no significant inhibition
